Measured values from patent US20250066864A1, “METHODS FOR IDENTIFYING ADAR1 INHIBITORS, AND COMPOSITIONS AND METHODS OF USE IN TREATING CANCER” (The Wistar Institute of Anatomy and Biology, priority 2021, published 2025).

Legend:
HeLa-Nluc-edit cells = assay: Firefly luciferase (FFL) activity in HeLa-Nluc-edit reporter cells (viability/apoptosis); assay type: cell-based, human; details: FIG. 24C
Description: A HeLa cell line (telomerase positive) permanently transformed with a dual luciferase reporter system (HeLa-Nluc-edit) as described by Fritzell, K. et al (Sensitive ADAR editing reporter in cancer cells enables high-throughput screening of small molecule libraries. Nucleic acids research 47, e22, doi:10.1093/nar/gky1228 (2019), which is incorporated herein by reference) were seeded at a density of 800 cells per well into 384 white plates (PerkinElmer, CulturPlate384, #6007689) in 20 μl of Opti-MEM without phenol red (Thermo Fisher Scientific #11058021) using a multidrop dispenser (Thermo Fisher Scientific) and incubated overnight at 37-C, 5% CO2. The cells were then treated with test compounds (Maybridge HitFinder Diversity Set library) for 72 h prior to luminescence signal detection. Briefly, 10 μl of Steadylite Plus FFL assay system reagents were added and firefly luminescence signal was measured within 10-20 min after the addition using a multiplate reader at 1 s integration time. Firefly luciferase activity was calculated for each well and results for each plate were normalized to a negative (0.1% DMSO) and positive (Doxorubicin 10 microM) control. […]
For the second screen, 10 μl of Steadylite Plus FFL assay system reagents were added and firefly luminescence signal was measured within 10-20 min after the addition using a multiplate reader at 1 s integration time. […]

ADAR = target: T1, ADAR (Homo sapiens, UniProt P55265); details: cited from earlier work
T1 sequence (P55265 1-1226): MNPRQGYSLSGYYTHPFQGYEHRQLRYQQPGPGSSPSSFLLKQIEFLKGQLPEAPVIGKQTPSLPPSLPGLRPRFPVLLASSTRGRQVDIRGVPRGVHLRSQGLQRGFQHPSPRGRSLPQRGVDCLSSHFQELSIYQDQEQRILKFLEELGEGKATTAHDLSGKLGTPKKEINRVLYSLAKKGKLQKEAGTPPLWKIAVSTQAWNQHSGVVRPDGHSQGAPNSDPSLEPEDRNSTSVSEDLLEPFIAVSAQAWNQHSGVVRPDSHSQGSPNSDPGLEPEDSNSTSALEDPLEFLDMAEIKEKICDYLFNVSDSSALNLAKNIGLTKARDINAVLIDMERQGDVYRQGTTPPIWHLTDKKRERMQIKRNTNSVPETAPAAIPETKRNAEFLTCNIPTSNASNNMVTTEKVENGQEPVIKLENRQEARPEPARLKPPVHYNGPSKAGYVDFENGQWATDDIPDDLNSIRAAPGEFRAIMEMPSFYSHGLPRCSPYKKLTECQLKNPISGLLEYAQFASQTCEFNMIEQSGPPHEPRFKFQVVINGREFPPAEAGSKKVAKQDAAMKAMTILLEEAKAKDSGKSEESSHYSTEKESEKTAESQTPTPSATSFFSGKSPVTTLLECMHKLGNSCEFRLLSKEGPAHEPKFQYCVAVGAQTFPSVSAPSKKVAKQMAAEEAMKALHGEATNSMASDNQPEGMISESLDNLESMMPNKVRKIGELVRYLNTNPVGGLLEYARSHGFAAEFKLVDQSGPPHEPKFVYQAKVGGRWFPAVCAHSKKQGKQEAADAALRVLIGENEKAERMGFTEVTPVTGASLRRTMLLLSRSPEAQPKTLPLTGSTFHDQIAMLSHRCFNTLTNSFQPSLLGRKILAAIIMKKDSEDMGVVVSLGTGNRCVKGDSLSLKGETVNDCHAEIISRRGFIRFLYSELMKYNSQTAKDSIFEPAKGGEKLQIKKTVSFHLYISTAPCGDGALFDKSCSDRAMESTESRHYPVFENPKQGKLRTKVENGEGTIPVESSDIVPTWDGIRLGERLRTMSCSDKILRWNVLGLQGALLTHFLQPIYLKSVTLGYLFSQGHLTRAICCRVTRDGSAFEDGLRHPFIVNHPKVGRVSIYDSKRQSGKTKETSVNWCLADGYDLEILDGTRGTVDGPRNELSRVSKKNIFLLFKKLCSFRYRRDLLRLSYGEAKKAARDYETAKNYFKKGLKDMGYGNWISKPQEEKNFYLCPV

Structure (SMILES)	apoptosis detected by reduction of the FFL activity (HeLa-Nluc-edit cells)	ADAR inhibition (ADAR)
COc1cccc2c1C(=O)c1c(O)c3c(c(O)c1C2=O)C[C@@](O)(C(=O)CO)C[C@@H]3O[C@H]1C[C@H](N)[C@H](O)[C@H](C)O1 [Doxorubicin]	induces acute apoptosis	
Nc1ncnc2c1nc(Cl)n2[C@@H]1O[C@H](CO)[C@@H](O)[C@H]1O [8-chloroadenosine]		not ADAR inhibitors
Nc1ncnc2c1nnn2[C@@H]1O[C@H](CO)[C@@H](O)[C@H]1O [8-azaadenosine]		not ADAR inhibitors
